PMC9032987, “Cytotoxic Alkylynols of the Sponge Cribrochalina vasculum: Structure, Synthetic Analogs and SAR Studies” (Marine Drugs, 2022)

How the values were obtained:
Assay type in all cases: cell-based, human
NSCLC U-1810 cells = experiment: MTT cytotoxicity assay in NSCLC U-1810 cells; settings: for IC50: MTT, 72 h post addition, estimated from cell viability curve; for viability at 162 µM: U-1810, at 162 µM; for viability at 113 µM: U-1810, at 113 µM
Procedure: (§1) Cytotoxicity structure-activity relationship analyses of compounds in NSCLC tumor cells and fibroblasts. Stock solutions (10 mg/mL) of the compounds to be tested were made in DMSO and further diluted with cell culture media prior to structure-activity relationship (SAR) screening as earlier described. To assess anti-tumor activity, the large cell lung carcinoma cell line NSCLC U-1810 (kind gift from Uppsala University) and diploid lung fibroblasts WI-38 [30] were used. U-1810 cells were propagated in RPMI-1640 medium (Sigma-Aldrich, St. Louis, […], USA) supplemented with FBS (10% HyClone) and L-glutamine (2 mmol/L, Invitrogen) while WI-38 fibroblasts were cultured in Eagle’s Minimum Essential Medium (Sigma-Aldrich) with 15% FBS and L-glutamine. For SAR assessment the cytotoxic assay 3-(4,5-dimethylthiazol-2-yl)-2,5 diphenyltetrazolium bromide (MTT) was applied. Profiling of U-1810 cells was carried out at 80% confluency (obtained by seeding 5000 cells/well in a 96-well plate for 24 h prior to treatment) and of WI-38 at 100% confluency (obtained by seeding 18,000 cells/well in a 96-well plate for 24 h prior to compound addition), the later to mimic the behavior of fibroblasts in the human body where they are non-dividing. For SAR evaluation, different concentrations of the compounds were added to fresh media while untreated cells were treated with DMSO corresponding to the amount applied when testing the highest concentration of the different compounds. The cytotoxicity of the compounds was assessed at 72 h post addition to cells by adding MTT solution (0.5 mg/mL, Sigma-Aldrich, 4 h at 37 °C) and dissolving the resulting formazan crystals in an SDS-containing solution (10% SDS and 0.01 mol/L HCl). Absorbance was quantified at 595 nm and the compound-induced cytotoxicity was calculated relative to that observed in DMSO-treated cells. The IC50 values were deduced from survival plots drawn in Graph Pad PRISM software vers.6 and for some of the compounds extrapolated as indicated in footnotes to Table 1.

[1] = test system: WI-38 diploid lung fibroblasts; experiment: MTT cytotoxicity assay in diploid lung fibroblasts WI-38; settings: for IC50: MTT, 72 h post addition, confluent cells, estimated from cell viability curve
Procedure: as §1

[2] = as above; settings: human, WI-38 diploid lung fibroblasts, 72 h, read-out: cell viability; for viability at 72 h, 188 µM: WI-38, at 188 µM; for viability at 72 h, 113 µM: WI-38, at 113 µM
Procedure: as §1

[3] = calculated at IC50 (WI-38 IC50 / U-1810 IC50)
[4] = Homo sapiens, 72 h, read-out: cell viability
[5] = calculated at IC50 of U-1810 and the highest dose applied in WI-38 (IC50 not reached)

| Structure (SMILES) | IC50 (NSCLC U-1810 cells; Homo sapiens, U-1810, 72 h) [µM] | Selectivity NSCLC cells (U-1810) vs. diploid fibroblasts (WI-38) (NSCLC U-1810 cells; [3]) | IC50 ([1]; Homo sapiens, WI-38, 72 h) [µM] | cytotoxic activity in NSCLC U-1810 cells (in words) (NSCLC U-1810 cells) | further results |
| --- | --- | --- | --- | --- | --- |
| C#CC(O)/C=C/CCCCCCCCCCCCCCC (racemic) [rac-18, rac-Icos-(4E)-en-1-yn-3-ol] | 1.2 | 6.9 | 8.3 |  |  |
| C#CC(CCCCCCCCCCCCCCC)SC(C)=O (racemic) [rac-39, S-Octadec-1-yn-3-yl ethanethioate] | 60 |  | > 154 |  | tumor selective cytotoxicity NSCLC vs WI-38 (in words) (NSCLC U-1810 cells): did not display any specific cytotoxicity; viability at 72 h, 154 µM ([2]; WI-38, at 154 µM): ~85% |
| CC#CC(O)CCCCCCCCCCCCCCCCC (racemic) [rac-42, Henicos-2-yn-4-ol] | > 162 |  |  |  | viability at 162 µM (NSCLC U-1810 cells; [4]): ~90% |
| C#C[C@H](O)/C=C/CCCCCCCCCCCCCC(C)C [Compound 19, (3R)-19-Methylicos-(4E)-en-1-yn-3-ol] | 2 | 6.5 | 13 | equally active |  |
| C#C[C@H](O)/C=C/CCCCCCCCC/C=C\CCCCC(C)C [Compound 22, (3R)-21-Methyldocos-(4E,15Z)-dien-1-yn-3-ol] | 1.2 | 10.8 | 13 | equally active |  |
| C#CC(=O)/C=C/CCCCCCCCC(C)CCCCCC (centres unmarked) [Compound 6, 14-Methylicos-(4E)-en-1-yn-3-one] | 65 | 1.1 | 73 | not active |  |
| C#C[C@H](O)CCCCCCCCCCCCCCC [Compound R-32, (R)-octadec-1-yn-3-ol] | 1.4 |  | > 188 |  | viability at 72 h, 188 µM [2]: ~60% |
| C#CC(O)C=CCCCCCCCC1CC1CCCCCC (centres unmarked) [Compound 8] | 1 | 10 | 10 | equally active | tumor selective cytotoxicity NSCLC vs WI-38 (in words) (NSCLC U-1810 cells): selectivity at lower doses |
| C#CC(O)CCCCCCCCCCCCCCCCC (racemic) [rac-33, Icos-1-yn-3-ol] | 2.8 |  | > 170 |  | viability at 72 h, 170 µM ([2]; WI-38, at 170 µM): ~100% |
| C#C[C@@H](O)CCCCCCCCCCCCCCC [Compound S-32, (S)-octadec-1-yn-3-ol] | 140 |  | > 188 |  | viability at 72 h, 188 µM [2]: ~80% |
| C#CC(O)c1cccc(CCCCCCCCCCCCCC)c1 (racemic) [rac-45, 1-(3-tetradecylphenyl)prop-2-yn-1-ol] | ~152 |  |  |  | viability at 76 µM (NSCLC U-1810 cells; Homo sapiens, U-1810, at 76 µM, one experiment, read-out: cell viability): ~70% |
| C#C[C@H](O)CCCCCCCCCCC(C)CCCCCC (stereo partly drawn) [Compound 7, (3R)-14-Methylicos-1-yn-3-ol] | 3 |  | > 163 | equally active | tumor selective cytotoxicity NSCLC vs WI-38 (in words) (NSCLC U-1810 cells): clear tumor selective activity |
| C#C[C@H](O)/C=C/CCCCCCCCCCCCCCCC [Compound 20, (3R)-Henicos-(4E)-en-1-yn-3-ol] | 1.4 | 10 | 14 | equally active |  |
| C#CC(O)c1ccccc1CCCCCCCCCCCCCC (racemic) [rac-48, 1-(2-tetradecylphenyl)prop-2-yn-1-ol] | ~50 |  |  |  |  |
| C#CC(CCCCCCCCCCCCCCC)OS(=O)(=O)c1ccc(C)cc1 (racemic) [rac-35, Octadec-1-yn-3-yl 4-methylbenzenesulfonate] | 23 |  | > 119 |  | Selectivity NSCLC cells (U-1810) vs. diploid fibroblasts (WI-38) (NSCLC U-1810 cells; [5]): >5.2 ^s; viability at 72 h, 119 µM ([2]; WI-38, at 119 µM): ~85% |
| C#CC(CCCCCCCCCCCCCCC)OC (racemic) [rac-38, 3-Methoxyoctadec-1-yne] | > 179 |  | > 179 |  | tumor selective cytotoxicity NSCLC vs WI-38 (in words) (NSCLC U-1810 cells): did not display any specific cytotoxicity; viability at 179 µM (NSCLC U-1810 cells; Homo sapiens, U-1810, at 179 µM, 72 h, read-out: cell viability): ~71%; viability at 72 h, 179 µM ([2]; WI-38, at 179 µM): ~77% |

| Structure (SMILES) | IC50 (NSCLC U-1810 cells; Homo sapiens, U-1810, 72 h) [µM] | Selectivity NSCLC cells (U-1810) vs. diploid fibroblasts (WI-38) (NSCLC U-1810 cells; [3]) | IC50 ([1]; Homo sapiens, WI-38, 72 h) [µM] | cytotoxic activity in NSCLC U-1810 cells (in words) (NSCLC U-1810 cells) | further results |
| --- | --- | --- | --- | --- | --- |
| C#C[C@H](CCCCCCCCCCCCCCC)OC(=O)[C@](OC)(c1ccccc1)C(F)(F)F [S,R-34, (R)-((S)-octadec-1-yn-3-yl)-3,3,3-trifluoro-2-methoxy-2-phenylpropanoate] | > 113 |  | > 113 |  | viability at 113 µM (NSCLC U-1810 cells; [4]): ~96%; viability at 72 h, 113 µM [2]: ~100% |
| C#CC(N)CCCCCCCCCCCCCCC (racemic) [rac-37, Octadec-1-yn-3-amine] | 29 | 1.2 | 34 |  |  |
| C#CC(O)c1ccccc1 (racemic) [rac-49, 1-Phenylprop-2-yn-1-ol] | > 379 |  |  | did not display any anti-tumor effect | viability at 379 µM (NSCLC U-1810 cells; Homo sapiens, U-1810, at 379 µM, 72 h, read-out: cell viability): ~80% |
| C#CC(Cl)CCCCCCCCCCCCCCC (racemic) [rac-36, 3-chlorooctadec-1-yne] | 140 |  | > 175 |  | tumor selective cytotoxicity NSCLC vs WI-38 (in words) (NSCLC U-1810 cells): did not display any specific cytotoxicity; Selectivity NSCLC cells (U-1810) vs. diploid fibroblasts (WI-38) (NSCLC U-1810 cells; [5]): >1.3 ^u; viability at 72 h, 175 µM ([2]; WI-38, at 175 µM): ~75% |
| C#C[C@@H](CCCCCCCCCCCCCCC)OC(=O)[C@](OC)(c1ccccc1)C(F)(F)F [R,R-34, (R)-((R)-octadec-1-yn-3-yl)-3,3,3-trifluoro-2-methoxy-2-phenylpropanoate] | > 113 |  | > 113 |  | viability at 113 µM (NSCLC U-1810 cells; [4]): ~100%; viability at 72 h, 113 µM [2]: ~100% |
| C#CC(=O)/C=C/CCCCCCCCC/C=C\CCCCCC [Compound 10, Docos-(4E,15Z)-dien-1-yn-3-one] | ~80 | ~0.4 | 30 | not active |  |
| C#CC(O)/C=C/C=C/CCCCCCCCCCCCCCC (racemic) [rac-27, (4E,6E)-docosa-4,6-dien-1-yn-3-ol] | ~2.4 |  | 70 |  | cytotoxicity to WI-38 fibroblasts (in words) [1]: did not affect the viability |
| C#C[C@H](O)/C=C/CCCCCCCCCCCCCCC [scal-R-18, (R,E)-icos-4-en-1-yn-3-ol] | 1 | 6.8 | 6.8 |  |  |
| C#CC(C)(O)CCCCCCCCCCCCCCCC (racemic) [rac-41, 3-Methylnonadec-1-yn-3-ol] | > 162 |  |  |  | viability at 162 µM (NSCLC U-1810 cells; [4]): ~54% |
| C#C[C@H](O)/C=C/CCCCCCCCCCCCC(C)C [Compound 1, (3R)-18-Methylnonadec-(4E)-en-1-yn-3-ol] | 1 | 12 | 12 | equally active | tumor selective cytotoxicity NSCLC vs WI-38 (in words) (NSCLC U-1810 cells): selectivity at lower doses |
| C#CC(O)CCCCCCCCCCCCCCC (racemic) [rac-32, Octadec-1-yn-3-ol] | 3 | 25 | 75 |  |  |
| C#CC(O)CCCCCCCCC (racemic) [rac-31, Dodec-1-yn-3-ol] | 15 |  |  | much lower toxicity |  |
| C#CC(S)CCCCCCCCCCCCCCC (racemic) [rac-40, Octadec-1-yne-3-thiol] | > 177 |  | > 177 |  | tumor selective cytotoxicity NSCLC vs WI-38 (in words) (NSCLC U-1810 cells): did not display any specific cytotoxicity; viability at 177 µM (NSCLC U-1810 cells; Homo sapiens, U-1810, at 177 µM, 72 h, read-out: cell viability): ~100%; viability at 72 h, 177 µM ([2]; WI-38, at 177 µM): ~100% |
| C#C[C@H](O)/C=C/CCCCCCCCCCCCCCC [Compound R-18, (R,E)-icos-4-en-1-yn-3-ol] |  | 3.8 |  |  | IC50 (NSCLC U-1810 cells): 0.9 µM; IC50 [1]: 3.4 µM |
| C#C[C@@H](O)/C=C/CCCCCCCCCCCCCCC [scal-S-18, (S)-icos-(4E)-en-1-yn-3-ol] | 1 | 8.5 | 8.5 |  |  |
